Results taken from patent US5707996A, “Pharmaceutical solution and methods for preparation thereof” (Macleod Pharmaceuticals, Inc., priority 1995, dated 1998).
Like-named read-outs stand apart in the source and are kept apart here.

Columns and labels:
[1] = cited from earlier work
[2] = system: protozoal enzymes; conditions: versus host cells; cited from earlier work

Row | solubility in acidic or basic aqueous medium (acidic or basic aqueous medium, room temperature) | SMILES | solubility in water (in words) [1] | solubility in 2-pyrrolidone (45° C.) | solubility in 2-pyrrolidone (room temperature) | solubility in NMP (NMP, room temperature) | solubility in water ([1]; room temperature) | selectivity for inhibiting folate synthesis in protozoal enzymes [2]
1 | at least 2.3 g/10 ml | Nc1ccc(S(=O)(=O)Nc2ncccn2)cc1 [sulfadiazine, 4-amino-N-2-pyrimidinylbenzenesulfonamide] | – | – | – | – | – | –
2 | – | Nc1ccc(S(=O)(=O)Nc2ncccn2)cc1 [Sodium sulfadiazine] | soluble in water | – | – | – | – | –
3 | – | COc1cc(Cc2cnc(N)nc2N)cc(OC)c1OC [Trimethoprim, 5-[(3,4,5-trimethoxyphenyl)methyl]-2,4-pyrimidinediamine] | not soluble in water | about 2.0 g/10 ml | about 0.4 g/10 ml | about 1.6 g/10 ml | about 0.04 g/100 ml | high selectivity
